# Test: in vitro
# Settings: human, hela cells, % viability
row,Compound,"viability at 28.5 h, 10 µM [%]"
1,Cc1ccc(-c2ncc(OCCN3CCCC3=O)nc2N)c(C)c1 [CBK145127],99.3
2,CCn1c(COc2ccccc2)nnc1Sc1ccc([N+](=O)[O-])cc1C=O [CBK267888],105
3,O=C(O)C1CC(=O)N(c2ccc(Br)cc2)C1 (centres unmarked) [CBK286998],87.7
4,CN(C)CCNC(=O)c1cccc(Oc2ccccc2)c1 [CBK270310],83.1
5,O=c1[nH]c(CN2CCCCCCC2)nc2ccccc12 [CBK283205],117
6,CNC(=O)CN1CCC[C@@H]2NC(=O)c3ccccc3OCCCCC[C@@H]21 [CBK292104],104
7,CCn1nc(C(C)C)cc1C(=O)N1CC2(CCNCC2)CC1C(=O)O (centres unmarked) [CBK307179],90.9
8,COC(=O)c1ccccc1NC(=O)CNC(=O)c1ccc(Cl)cc1Cl [CBK267860],105
9,Cn1c(=O)c2c(nc(N3CCOCC3)n2CC/N=C2/CCCN2)n(C)c1=O [CBK267709C],85.9
10,COCC(=O)N1CCC(c2onc3c2CC(C)CC3)CC1 (centres unmarked) [CBK284599],89.9
11,Cn1nc(C2CC2)cc1NS(C)(=O)=O [CBK038148],93.9
12,C#CCNC(=O)[C@H]1O[C@H](CCN(C)CC#C)CC[C@@H]1O [CBK288727],89.6
13,CC1(C)CC(=O)C2=C(C1)Nc1nc(SCc3ccc([N+](=O)[O-])cc3)[nH]c(=O)c1C2c1cccnc1 (centres unmarked) [CBK266096],108
14,CN1C(=O)COC[C@@H]1[C@H](O)c1ccc(NC(=O)C2CC2)cc1 [CBK289057],83.1
15,Fc1ccc(Sc2nc3ccccc3nc2N2CCCC2)cc1 [CBK089543],101
16,O=C1CCC(=O)N1CCOc1nccnc1N1CCN(CC2CCCCC2)CC1 [CBK084306],88.9
17,CC[C@H]1CN2CC[C@H]1C[C@@H]2CNC(=O)Nc1cccc(C#N)c1 [CBK288748],87.4

row,Compound,"viability at 28.5 h, 10 µM [%]"
1,COc1ccc(C(=O)n2nc(SC)nc2N)cc1 [CBK006853],100
2,Cc1cc(C=O)c(O)c(/C=N/CC/N=C/c2cc(C)cc(C=O)c2O)c1 [CBK262149],95.6
3,O=S(=O)(Nc1nnn[nH]1)c1ccc(-c2cc(C(F)(F)F)on2)s1 [CBK062393],96.9
4,COc1c(O)ccc(/C=N/NC(=O)c2cccnc2)c1[N+](=O)[O-] [CBK262197],112
5,O=C(COc1ccc(S(=O)(=O)NC2CCCCC2)cc1)Nc1cccc2ccccc12 [CBK266023],100
6,Cc1ccc(S(=O)(=O)N2CCOCC2)cc1C(=O)NCc1ccco1 [CBK269677],102
7,CCc1cccc(CN2CCC(CNC(=O)Nc3ccc(Cl)cc3)CC2)c1 [CBK269151],93.4
8,FC(F)(F)c1nc2ccccc2nc1SCCOc1ccccc1 [CBK103726],102
9,O=C(O)c1cc(S(=O)(=O)NCc2ccc(Cl)cc2Cl)ccc1O [CBK296924],94.7
10,O=C(O)c1ccc(N2C(=O)C(O)=C(C(=O)c3ccccc3)C2c2cccc([N+](=O)[O-])c2)cc1 (centres unmarked) [CBK263760],92.5
11,Cc1cc(C)c(S(=O)(=O)NC(CC(=O)O)c2ccccc2)cc1C (centres unmarked) [CBK267081],86.8
12,O=C(c1ccco1)N1CCc2c([nH]c3ccccc23)C12CCN(Cc1ccccc1)CC2 [CBK286313],91
13,CC(=O)NS(=O)(=O)c1ccc(NC(=O)CCSc2ccc(C)cc2)cc1 [CBK296141],88.5
14,CCCc1[nH]nc(O)c1Cc1ccc(C(C)C)cc1 [CBK075033],106
15,Cc1ccc(S(=O)(=O)NC2c3cccc4cccc(c34)C2Sc2nnnn2-c2ccccc2)cc1 (centres unmarked) [CBK265884],93.1
16,Oc1nc2cccnc2cc1-c1ccc2c(c1)OCCCO2 [CBK081299],96
17,COc1ccc(OC)c(Nc2nc(NCC3CCCO3)c3ccccc3n2)c1 (centres unmarked) [CBK268403C],90.9

# Same assay, conditions: human, hela cells, % viability, bulk resorufin, single well
row,Compound,"viability at 28.5 h, 10 µM [%]"
1,CC(=O)[C@H]1C[C@@H](CC(=O)N2CCC(C#N)(c3ccccc3)CC2)C1(C)C [CBK091393],91.5
